For assay [1], the target named is Serotonin receptor (2b and 2c) (Homo sapiens) (UniProt P41595+P28335). Put plainly: Selectivity expressed as ratio of serotonin 5-HT2C receptor over serotonin 5-HT2B receptor. Format: protein assay.
Assay [2] has as its system Rattus norvegicus. Description: Dose required to reverse mCPP induced hypolocomotion by 50% at 7 mg/kg, ip administration 30 min pretest. Format: functional. As to conditions: 0.5 h, route intraperitoneal, read-out: ID50 (the source's name).
In assay [3] the target is Serotonin 2 receptors; 5-HT2a & 5-HT2c (Homo sapiens) (UniProt P28223+P28335). Description: Selectivity expressed as ratio of serotonin 5-HT2C receptor over serotonin 5-HT2A receptor. Format: protein assay.
Assay [4] has as its target 5-hydroxytryptamine receptor 2A (Homo sapiens, UniProt P28223). Description: Binding affinity towards human cloned 5-hydroxytryptamine 2A receptor of HEK293 cells by displacement of [3H]ketanserin. Format: cell-based.
Assay [5] has as its target 5-hydroxytryptamine receptor 2B (Homo sapiens, UniProt P41595). Put plainly: Binding affinity towards human cloned 5-HT2B receptor of HEK293 cells by displacement of [3H]5-HT. Format: cell-based. Background: Loss of bound radioactivity is the signal in a displacement assay; it reports binding, not function.
For assay [6], the target named is T1, 5-hydroxytryptamine receptor 2C (Homo sapiens, UniProt P28335).
T1 sequence (P28335 whole entry): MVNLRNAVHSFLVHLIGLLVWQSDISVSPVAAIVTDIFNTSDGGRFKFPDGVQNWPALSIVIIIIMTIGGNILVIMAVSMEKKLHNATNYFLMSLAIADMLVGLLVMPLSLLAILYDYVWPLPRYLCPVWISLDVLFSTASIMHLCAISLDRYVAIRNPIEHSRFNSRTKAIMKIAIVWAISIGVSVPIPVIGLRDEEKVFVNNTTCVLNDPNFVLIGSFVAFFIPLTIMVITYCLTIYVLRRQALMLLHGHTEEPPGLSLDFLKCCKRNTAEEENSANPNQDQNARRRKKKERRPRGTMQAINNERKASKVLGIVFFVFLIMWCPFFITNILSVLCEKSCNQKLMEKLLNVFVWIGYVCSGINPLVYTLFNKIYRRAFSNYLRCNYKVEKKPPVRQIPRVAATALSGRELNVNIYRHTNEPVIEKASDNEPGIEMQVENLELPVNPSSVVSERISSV
Description: Binding affinity towards human cloned 5-hydroxytryptamine 2C receptor of HEK293 cells by displacement of [3H]mesulergine. Format: cell-based.

Assay [7] concerns Rattus norvegicus. Put plainly: Percent reversal of mCPP induced hypolocomotion after peroral administration at 5 mg/kg in rat. The settings on record: route oral. Format: functional.

Chain of 5-hydroxytryptamine receptor 2B (P41595 whole entry): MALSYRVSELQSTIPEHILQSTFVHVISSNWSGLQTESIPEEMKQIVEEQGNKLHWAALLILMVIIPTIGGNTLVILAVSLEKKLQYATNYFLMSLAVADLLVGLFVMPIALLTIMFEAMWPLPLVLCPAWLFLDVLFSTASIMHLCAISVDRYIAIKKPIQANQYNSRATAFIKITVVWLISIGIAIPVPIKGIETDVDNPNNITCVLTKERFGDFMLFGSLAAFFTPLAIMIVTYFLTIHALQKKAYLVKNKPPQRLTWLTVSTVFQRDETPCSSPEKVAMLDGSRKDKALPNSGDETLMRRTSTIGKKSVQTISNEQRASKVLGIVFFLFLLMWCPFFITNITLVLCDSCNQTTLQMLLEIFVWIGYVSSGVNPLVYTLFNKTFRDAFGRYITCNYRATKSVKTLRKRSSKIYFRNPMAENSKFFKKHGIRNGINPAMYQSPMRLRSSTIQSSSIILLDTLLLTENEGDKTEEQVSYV
Chain of Serotonin 2 receptors; 5-HT2a & 5-HT2c (Homo sapiens) (P28223 whole entry, looked up, one chain of several): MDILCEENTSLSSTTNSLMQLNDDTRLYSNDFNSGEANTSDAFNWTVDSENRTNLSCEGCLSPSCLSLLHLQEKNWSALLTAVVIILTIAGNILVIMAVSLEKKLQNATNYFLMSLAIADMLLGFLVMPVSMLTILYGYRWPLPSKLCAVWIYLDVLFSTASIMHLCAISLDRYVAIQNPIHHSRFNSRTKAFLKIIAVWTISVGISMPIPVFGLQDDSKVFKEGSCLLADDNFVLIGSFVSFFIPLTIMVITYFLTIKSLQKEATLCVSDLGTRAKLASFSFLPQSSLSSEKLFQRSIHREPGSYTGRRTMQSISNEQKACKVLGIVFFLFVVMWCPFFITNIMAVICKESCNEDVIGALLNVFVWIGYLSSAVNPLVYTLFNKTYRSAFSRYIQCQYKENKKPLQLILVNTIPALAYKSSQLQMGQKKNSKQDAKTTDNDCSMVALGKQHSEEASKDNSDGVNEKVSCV
Chain of 5-hydroxytryptamine receptor 2A (P28223 whole entry): as the sequence (P28223 whole entry, looked up, one chain of several) above

As to `Cc1cc2c(cc1C(F)(F)F)N(C(=O)Nc1cnc(Oc3cccnc3C)c(Cl)c1)CC2`, the Selectivity came out at 25 in assay [1] and 160 in assay [3]. Further, the ED50 in the assay on Rattus norvegicus [2] was over 5 mg/kg. The Ki (usually a dissociation constant, usually derived from enzyme kinetics or from competition with a known ligand) was 251 nM in assay [4], 39.8 nM in assay [5] and 1.58 nM in assay [6].
For `Cc1cc2c(cc1Cl)N(C(=O)Nc1cnc(Oc3cccnc3C)nc1)CC2`, the Selectivity in assay [1] was 20; in assay [3] it was over 200. Besides, the ED50 in the assay on Rattus norvegicus [2] turned out to be 3.7 mg/kg. Further, the Ki in assay [4] was over 631 nM; in assay [5], 63.1 nM; in assay [6] it was 3.16 nM.
Take `Cc1cc2c(cc1C(F)(F)F)N(C(=O)Nc1cnc(Oc3cccnc3C)cn1)CC2`: the Selectivity in assay [1] came out at 40; in assay [3] it was 320. Also, in the assay with Rattus norvegicus [2], the ED50 turned out to be 3.6 mg/kg. In addition, the Ki was 631 nM in assay [4], 79.4 nM in assay [5] and 2 nM in assay [6].
Take `Cc1ncccc1Oc1ccc(NC(=O)N2CCc3c2cc(C(F)(F)F)c2c3CCO2)cn1`: the results for the Selectivity in assay [1] and in assay [3] were 50 and 400, respectively. Moreover, the ED50 in the assay on Rattus norvegicus [2] is 9 mg/kg. Besides, the Ki in assay [4] was 501 nM; in assay [5], 63.1 nM; in assay [6], 1.26 nM.
As to `Cc1cc2c(cc1Cl)N(C(=O)Nc1ccc(Oc3cccnc3C)nn1)CC2`, the Selectivity in assay [1] stood at 80; in assay [3], 800. Besides, the ED50 in the assay with Rattus norvegicus [2] is 1.6 mg/kg. Besides, the Ki in assay [4] was 1580 nM; in assay [5] it was 158 nM; in assay [6], 2 nM.
For the compound `Cc1cc2c(cc1Cl)N(C(=O)Nc1ccc(Oc3cccnc3Cl)nc1)CC2`, the figures for the Selectivity in assay [1] and in assay [3] were 40 and 80, respectively. Moreover, the ED50 in the assay on Rattus norvegicus [2] was found to be 4.5 mg/kg. In addition, the Ki in assay [4] was 100 nM; in assay [5], 50.1 nM; in assay [6], 1.26 nM.
As for `Cc1ncccc1Oc1ccc(NC(=O)N2CCc3cc(Br)c(C(F)(F)F)cc32)cn1`, the Selectivity in assay [1] turned out to be 80; in assay [3] it was 100. For the same compound, the ED50 with Rattus norvegicus [2] worked out at 2 mg/kg. The Ki is 126 nM in assay [4], 100 nM in assay [5] and 1.26 nM in assay [6].
Regarding `Cc1cc2c(cc1Cl)N(C(=O)Nc1cnc(Oc3cccnc3C)c(C)c1)CC2`, the values for the Selectivity in assay [1] and in assay [3] were 20 and 80, respectively. The ED50 with Rattus norvegicus [2] was 0.8 mg/kg. Also, the Ki in assay [4] is 126 nM; in assay [5], 31.6 nM; in assay [6], 1.58 nM.
Regarding `Cc1cc2c(cc1C(F)(F)F)N(C(=O)Nc1ccc(Oc3cccnc3C)nc1)CC2` [SB-243213], the results for the Selectivity in assay [1] and in assay [3] were 100 and 160, respectively. Moreover, in the assay with Rattus norvegicus [2], the ED50 stood at 1 mg/kg.
`Cc1cc2c(cc1C(F)(F)F)N(C(=O)Nc1ccc(Oc3cccnc3C)nn1)CC2`: the Selectivity in assay [1] was found to be 40; in assay [3], 130. For the same compound, the ED50 with Rattus norvegicus [2] came to 1.2 mg/kg. Moreover, the results for the Ki in assay [4], in assay [5] and in assay [6] were 398 nM, 126 nM and 3.16 nM, respectively.
Turning to `Cc1ncccc1Oc1ccc(NC(=O)N2CCc3cc(C(F)(F)F)ccc32)cn1`, the Selectivity in assay [1] came out at 160; in assay [3], 630. The ED50 with Rattus norvegicus [2] worked out at 2.1 mg/kg. Further, the Ki in assay [4] was 2510 nM; in assay [5], 631 nM; in assay [6], 3.98 nM.
For `CCc1ncccc1Oc1ccc(NC(=O)N2CCc3cc(C)c(Cl)cc32)cn1`, the Selectivity in assay [1] came to 25; in assay [3], 100. The ED50 in the assay with Rattus norvegicus [2] was 1.8 mg/kg. Further, the Ki in assay [4] was 200 nM; in assay [5], 50.1 nM; in assay [6], 2 nM.
As for `Cc1cc2c(cc1Cl)N(C(=O)Nc1cnc(Oc3cccnc3C)c(Cl)c1)CC2`, the Selectivity in assay [1] is 30; in assay [3], 200. Moreover, the ED50 with Rattus norvegicus [2] is over 5 mg/kg. The Ki is 126 nM in assay [4], 20 nM in assay [5] and 0.631 nM in assay [6].
With `Cc1ncccc1Oc1ccc(NC(=O)N2CCc3c2cc(Cl)c(C)c3Cl)cn1`, the Selectivity in assay [1] was found to be 40; in assay [3] it was 60. The Ki in assay [4] was 63.1 nM; in assay [5] it was 39.8 nM; in assay [6], 1 nM. Moreover, the Reversal in the assay with Rattus norvegicus [7] is on record as 85%.
In the case of `Cc1ncccc1Oc1ccc(NC(=O)N2CCc3c2ccc(Cl)c3Cl)cn1`, the Selectivity in assay [1] came out at 160; in assay [3], 1000. Further, the Ki in assay [4] was 3160 nM; in assay [5], 501 nM; in assay [6], 3.16 nM. The Reversal in the assay on Rattus norvegicus [7] was 4%.

The values above are taken from ChEMBL document CHEMBL1133064, “1-[2-[(Heteroaryloxy)heteroaryl]carbamoyl]indolines: novel and selective 5-HT2C receptor inverse agonists with potential as antidepressant/anxiolytic agents” (Bioorg Med Chem Lett, 2000).
